Test results taken from patent publication US7049321B2, “Methods and pharmaceutical compositions for treatment of central and peripheral nervous system disorders and compounds useful therefor” (Israel Institute for Biological Research, priority 2002, dated 2006).
Entries after “also recorded” stand apart in the source; their conditions may differ.

Columns and labels:
[1] = Pharmacokinetic study in rats; format: in vivo; details: rat; for biovailability in rats: in vivo; for AUC(0-inf) / Cmax / MRT / Tmax / half-life: plasma, Rats
From the text: The results of the PK profile of AF292 in rats and Beagle dogs (overnight fasting; drug administered in water solution; gavage) are listed in Table 1.

trihexyphenidyl rats = assay: Passive avoidance in trihexyphenidyl-treated rats; format: in vivo, Wistar rats; details: for Effect on passive avoidance: AF292 0.03, 0.05, 0.1, 0.3, 0.5 mg/kg p.o., AF267B 0.5, 1, 5; for MED: p.o.; for Retention latency: 24 h
From the text: Trihexyphenidyl is a selective M1 muscarinic antagonist that crosses the blood brain barrier and induces memory and learning impairments (Bymaster et al. J Pharmacol Exp Ther 267: 16–24, 1993. Roldan et al Neurosci. Lett. 230: 93–96, 1997; Kimura et al Brain Res. 834: 6–12, 1999).
Naive Wistar rats were used in the experiments below. The passive avoidance (PA) task is comprised of training (acquisition) phase and a retention phase. In the training procedure each rat was individually placed in the small illuminated compartment and after 60 sec. of familiarization/adaptation, the door to the large compartment was opened and the latency to enter was measured (Initial Latency). Immediately following entry into the dark compartment, the door was closed and inescapable foot shock (0.6 mA for 3 sec) was delivered through the grid floor. A cutoff point of 180 sec was used for initial latency. […] After the acquisition trial the rat was returned to its home cage. Retention of the passive avoidance task was measured 24 h later, by again placing the rat in the light compartment and after a 60 sec adaptation interval, the door was opened and the latency to re-enter the dark compartment was measured. A cutoff point of 300 sec was used for retention latency.

[2] = tested on: Rat pheochromocytoma cells transfected with M1 mAChR; assay: Neurite outgrowth response; format: cell-based; details: for Emax: Rattus norvegicus, read-out: Maximal response, percent of cells with neurites
Experimental: Rat pheochromocytoma cells transfected with M1 mAChR cells were grown as described in Gurwitz et al, (NeuroReport 6, 485,1995). For determination of neurite outgrowth, cells plated in six-well plates were used 3–5 days after-plating. Growth factors were added 1 day after plating and muscarinic agonists were added for the last 24 hrs.
Cells were observed under an inverted microscope. The percent of cells with neurite longer than cell diameter were scored in three random fields of several hundred cells from each well. Results were expressed as a percent of cells with neurites. Treatments were performed in triplicate cells. Both NGF (50 ng/ml) and EGF (100 ng/ml) were added 1 day after plating. Muscarinic agonists were added 24 hours before scoring.

M1 mAChR = target: T1, M1 mAChR (Rattus norvegicus, UniProt P08482); assay: α-APPs secretion in cell cultures stably transfected with the M1 mAChR; format: cell-based; details: for Emax: read-out: α-APPs secretion, % of maximal response of carbachol
T1 construct: expressed in transfected cells; elsewhere rat pheochromocytoma cells
T1 sequence (P08482 1-460): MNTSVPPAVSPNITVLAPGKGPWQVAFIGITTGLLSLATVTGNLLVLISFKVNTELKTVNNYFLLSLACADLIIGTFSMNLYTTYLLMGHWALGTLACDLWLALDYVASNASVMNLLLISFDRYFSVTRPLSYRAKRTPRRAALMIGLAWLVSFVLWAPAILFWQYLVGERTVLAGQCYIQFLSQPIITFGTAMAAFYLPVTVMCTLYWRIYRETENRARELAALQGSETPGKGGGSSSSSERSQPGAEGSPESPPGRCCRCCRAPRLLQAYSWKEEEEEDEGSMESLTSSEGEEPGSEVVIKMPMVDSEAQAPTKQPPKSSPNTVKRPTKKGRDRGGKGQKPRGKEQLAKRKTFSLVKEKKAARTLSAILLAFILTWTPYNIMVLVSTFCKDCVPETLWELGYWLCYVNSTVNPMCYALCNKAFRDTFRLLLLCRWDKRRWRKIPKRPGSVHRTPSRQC
Experimental: Cells were plated in 6 well culture plates and used at the age of 3–5 days after plating. […] Cells exposed to medium alone are referred as controls.
Cell supernatants were collected into Eppendorff tubes containing a cocktail of protease inhibitors (5 units/ml aprotinin, […], […] and 10^−4M Phenylmethylsulfonylfluoride (PMSF, a protease inhibitor); Sigma, USA). The collected media were concentrated with Centricon tubes (Amicon, Beverly, Mass., USA) and kept frozen for α-APPs secretion determination. Equal amounts of protein (50–100 μg) were loaded and separated on 10% sodium dodecyl sulfate-polyacrylamide gel electrophoresis (SDS-PAGE). Followed by western blotting onto nitrocellulose membrane, blocked by fat-free milk, and probed for 24 hours at 4° C., with anti-Alzheimer's precursor protein, A4 monoclonal antibody 22C11 (0.25 μg/ml; Boehringer Mannheim, Germany). The nitrocellulose membranes were washed and incubated for 2 hours at room temperature with peroxidase-linked goat anti-mouse IgG antibodies (Jackson Immunoresearch, USA), followed by extensive washout and staining with enhanced chemiluminescence detection system (Amersham). Quantitative evaluation of the immunoreactive bands, on the exposed films, was performed by video-imaging densitometry (Gel-aid software; Galai Co., Israel). APPs levels were expressed as x-fold increase over basal levels.

[3] = tested on: Rat pheochromocytoma cells transfected with M1 mAChR; format: cell-based; details: for Cell death induced by β-A25-35: β-A25-35 (1 μM), 24 hrs, serum-deprived
Experimental: Confluent rat pheochromocytoma cells transfected with the M1 mAChR cultures were detached with trypsin, washed and plated in 24-well, 6-well, 60-mm or 100-mm plates that were precoated with rat tail collagen (Sigma, Israel). Several experiments were performed in serum-free medium. For 3-(4,5-dimethylthiazol-2-yl)-2,5-diphenyl-tetrazolium bromide (MTT) assay, cells (1.5×10^4) were plated in 96-well collagen-precoated plates, in serum-free medium, with or without various drugs for 24 hours. For differentiation, cells were grown in the presence of 1% FCS and 1% HS, with addition of 50 ng/ml NGF for 7 days, to cause full differentiation. […] After 7 days, cells were washed and the medium was either replaced to serum-free, or cells were detached and replated in serum-free medium. Cells in serum-free medium were treated either with Aβ peptides that were previously “aged” or with H2O2. Tested compounds were added together with the insults for the indicated time, unless otherwise stated.
Cells were plated in 96-well plates in 100 μl medium. After exposure to various treatments, 10 μl of 5 mg/ml MTT [3-(4,5-dimethylthiazol-2-yl)-2,5-diphenyl-tetrazolium bromide; Sigma, Israel] solution in phosphate-buffered saline (PBS) was added to each well. Plates were incubated for 2 hrs at 37° C. followed by hydrocholoric acid-isopropanol addition (100 μl of 0.04N HCl/isopropanol). Plates were read using ELISA reader at a wavelength of 570 nm.
The MTT assay measures primary early changes within the cells, reflecting the integrity of the electron transport chain and provides a readout of cellular redox activity. This test is a specific, early indicator of the mechanism of β-amyloid-mediated cell death and can be used to detect rapid inhibitory response.

[4] = tested on: cells transfected with M1 mAChR; assay: Protection from H2O2-induced toxicity; format: cell-based, rat
[5] = oral, extrapolated for 10 mg/kg

Row | Compound | biovailability in rats [1] | Effect on passive avoidance (trihexyphenidyl rats) | MED (trihexyphenidyl rats) | EC50 (M1 mAChR) | Emax (M1 mAChR) | MTT assay against Aβ 25–35 & H2O2 in cell cultures transfected with rat M1 mAChR [3] | Cell death induced by β-A25-35 [3] | Protection from H2O2-induced toxicity [4] | Emax [2] | other results
1 | CC[C@@H]1SC2(CCNCC2)NC1=O [AF292, (S)-2-Ethyl-1-thia-4,8-diaza-spiro[4.5]decan-3-one] | 49% | positive effects | < 0.03 mg/kg | 3 µM | 100% | Equipotent with AF267B & CCh at 100 μM; Even | significantly attenuated | protect the cells |  | AUC(0-inf) ([1]; po, 10 mg/kg): 2150 ng·h/mL; Cmax ([1]; po, 10 mg/kg): 1910 ng/mL; MRT ([1]; po, 10 mg/kg): 90 min; Tmax ([1]; po, 10 mg/kg): 30 min; half-life ([1]; po, 10 mg/kg): 59.4 min; Duration of action (trihexyphenidyl rats; rat, in vivo): LONG DURATION OF ACTION; Potency among the tested agonists (trihexyphenidyl rats; rat, in vivo): most potent compound among the tested agonists; Neurotrophic effect ([2]; blocked by atropine): neurotrophic; α-APPs secretion, comparison in words (M1 mAChR): as effective as AF267B; also recorded: Equipotent with AF267B &
2 | CC[C@@H]1SC2(CCN(C)CC2)NC1=O [AF267B, (S)-2-ethyl-8-methyl-1-thia-4,8-diaza-spiro[4.5]decan-3-one] |  | 0.5, 1, 5 positive effects | MED 0.1–0.5 mg/kg, p.o. | 3 µM | 100% | 100% | significantly attenuated | protect the cells | 60% | AUC(0-inf) [1, 5]: 1550 ng·h/mL; Cmax [1, 5]: 1700 ng/mL; AUC(0-inf) ([1]; po, 5 mg/kg): 773 ng·h/mL; Cmax ([1]; po, 5 mg/kg): 852 ng/mL; MRT ([1]; po, 5 mg/kg): 60 min; Tmax ([1]; po, 5 mg/kg): 15 min; half-life ([1]; po, 5 mg/kg): 38.4 min; Retention latency (trihexyphenidyl rats; 0.5 mg/kg p.o.): 181.1 ± 35.4 s; Retention latency (trihexyphenidyl rats; 1 mg/kg p.o.): 290.1 ± 8.5 s; α-APPs secretion, % of maximal response of carbachol (M1 mAChR): equal to maximal response of carbachol; α-APPs secretion, fold increase over control (M1 mAChR; 10^−4M, maximal increase): about 6 fold
3 | CC1=NCC2(CCN(C)CC2)S1 [AF150(S), 2,8-Dimethyl-1-thia-3,8-diaza-spiro[4.5]dec-2-ene] | 31% |  |  |  | 50% |  | significantly attenuated | protect the cells | 30% | Retention latency (trihexyphenidyl rats; 5 mg/kg p.o.): 222 ± 25.6 s
